According to patent US20180071317A1, “USE OF AGENTS THAT ALTER THE PERITUMORAL ENVIRONMENT FOR THE TREATMENT OF CANCER” (SERVICIO ANDALUZ DE SALUD, priority 2011, published 2018):

Legend:
[1] = system: fibroblasts (PHF) co-cultured with tumor cells of human Burkitt lymphoma (CA-46); assay: Marker expression (IHC) in PHF co-cultured with CA-46 tumor cells; format: cell-based; conditions: PHF co-cultured with CA-46 + SP;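 note: percentage of PHF fibroblasts positive for each marker, cultures grown in fresh human plasma from a healthy donor, six replicates, compared with fibroblasts cultured alone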
[2] = system: fibroblasts (PHF) co-cultured with tumor cells of human Edwing sarcoma (MHH-ES-1); assay: Marker expression (IHC) in PHF co-cultured with MHH-ES-1 tumor cells; format: cell-based; conditions: PHF co-cultured with MHH-ES-1 + SP
Experimental: (§1) All cultures were maintained 48 hours, following which the same cells were included in paraffin blocks for subsequent analysis of the expression of different markers by immunohistochemistry (see Example 1). […] All experiments were carried out sixfold. Analyzed markers in fibroblast cells (stromal cells) were: TGF-α, TGF-β1, TGF-β2, TGF-β3, SPARC, MMP-3, MMP-7, MMP-9, MMP-11, MMP-13 and MMP-14.

[3] = system: human primary macrophages (PHM); assay: Marker expression (immunohistochemistry) in human primary macrophages with SP alone or with NK1 antagonists; format: cell-based; conditions: SP 1 μM; 48 h
Experimental: In this sense the next step was to analyze the effect exerted by the treatment with non-peptide NK1 antagonists in human primary macrophages (PHM) obtained and purified from pleural effusion samples obtained from men with chronic age range between 45 and 55 years. Briefly, the pleural fluid from chronic (rich in macrophages) was centrifuged.
After 48 hours of culture, cells were harvested and cellular paraffin blocks were constructed for immunohistochemical analysis (see Example 1). To analyze the expression of markers EGF, MMP-9, VEGF and IL-8 antibodies were used as follows: EGF (rabbit monoclonal antibody, anti-EGF; 07-1432. Merck-Millipore), MMP-9 (polyclonal rabbit anti-MMP-9: SAB4501896, Sigma-Aldrich), VEGF (mouse monoclonal anti-VEGF, GF25-100UG, Merck-Millipore) and TNF-α (mouse monoclonal anti-TNF-α, number MAB 1021 catalogue, obtained from Merck-Millipore). All of these antibodies were used at a concentration of 1/1000. System for labelling with a secondary antibody specific for the primary antibodies obtained from rabbit or mouse was used, as was necessary in each case, both the Envision (Dako). All experiments were carried out sixfold.

[4] = system: fibroblasts (PHF) co-cultured with tumor cells in human prostate carcinoma (22Rv1); assay: Marker expression (IHC) in PHF co-cultured with 22Rv1 tumor cells; format: cell-based; conditions: co-culture with 22Rv1; SP 1 μM; 48 h;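 note: cultures grown on fresh plasma from a healthy donor, each experiment run sixfold, values give the percentage of fibroblasts positive for the given marker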
Experimental: as §1

[5] = system: fibroblasts (PHF) co-cultured with human fibrosarcoma tumor cells (HT-1080); assay: Marker expression (IHC) in PHF co-cultured with HT-1080 tumor cells; format: cell-based; conditions: co-culture with HT-1080; SP 1 μM; 48 h;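 note: cultures grown in fresh human plasma from a healthy donor, six replicates, value is percent of fibroblasts positive for the marker, compared with fibroblasts cultured without tumor cells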
Experimental: as §1

polymorphonuclear cells = assay: Marker expression (immunohistochemistry) in polymorphonuclear blood cells with SP alone or with NK1 antagonists; format: cell-based, human; conditions: SP 1 μM; 48 h
Text: Briefly, heparinized blood from healthy donors was centrifuged so as to separate the various components thereof. Red blood cells remained at the bottom of the tube. Above them was a small white layer composed of the white blood cells and above, on top of the tube, the blood plasma. The layer of white cells was distributed in a culture plate of 24 wells by adding in each the same concentration of blood plasma from the same donor, supplemented with 1% antibiotic-antimycotic (Invitrogen). In each well, approximately 1000 cells (PHF) skin from the dermis were further added, obtained as previously described in Example 2. […] After 48 hours of incubation, cells were collected and embedded in paraffin for expression analysis by immunohistochemical techniques (as described in Example 1).
The expression of TGF molecular markers (anti-TGF 2, SAB4502956) and NF-kB (anti-NF-kB, SAB4501992) using specific antibodies against them were analyzed. All antibodies used were rabbit polyclonal antibodies obtained from Sigma Aldrich and were used at a concentration of 1/1000. All experiments were carried out sixfold.

[6] = system: co-cultures of tumor cells-endothelial cells (C-12210); assay: Inhibition/survival in co-cultures of primary human tumor cells and endothelial cells; format: cell-based; conditions: survival in reference to control, SP 1 μM
Experimental: To check that the interaction of primary tumor cells extracted directly from human with human vascular endothelial cells, promotes the survival of both cell types, co-cultures were performed microvascular endothelial cells from juvenile foreskins (PromoCell GmbH, Sickingenstraβe 63/65, D-69126 Heidelberg, Germany; reference C-12210) with tumor cells obtained directly from primary human tumors.
A total of 6 wells containing tumor cells were used as control for survival. Another 6 wells containing tumor cells were cultured with addition of endothelial cells.
Subsequently, cells were embedded in paraffin for analysis by immunohistochemistry. In order to identify the different cell types and quantity of them [They were labelled with primary antibodies specific for human endothelial cells (anti-CD31), carcinoma cells (Anti-Cytokeratins Spread Spectrum), glioma (Anti-glial fibrillary acidic protein), fibrosarcoma and malignant fibrous histiocytoma (Anti-Smooth Muscle Actin), Ewing sarcoma (Anti-CD99), Melanoma (Anti-HMB45), leukemias and lymphomas (Anti-Common Antigen Leucitario) and myeloma (anti CD 138). All antibodies are distributed by Dako and were used at the same concentration which is supplied (supplied pre-diluted—“ready to use”).

[7] = Carcinoma of lung, (Small cell carcinoma in Table 36)
[8] = Carcinoma of lung, Non Small Cell Carcinoma in Table 36
[9] = Carcinoma of thyroid, (Follicular Carcinoma in Table 36)
[10] = Carcinoma of thyroid, (Papillary Carcinoma in Table 36)

CSCC[C@H](NC(=O)[C@H](CC(C)C)NC(=O)CNC(=O)[C@H](Cc1ccccc1)NC(=O)[C@H](Cc1ccccc1)NC(=O)[C@H](CCC(N)=O)NC(=O)[C@H](CCC(N)=O)NC(=O)[C@@H]1CCCN1C(=O)[C@H](CCCCN)NC(=O)[C@@H]1CCCN1C(=O)[C@@H](N)CCCNC(=N)N)C(N)=O [SP]
cells expressing MMP-3 [1]: 63.4 ± 4.3% | cells expressing MMP-7 [1]: 66.1 ± 3.8% | cells expressing MMP-9 [1]: 72.3 ± 4.4% | cells expressing MMP-11 [1]: 67.4 ± 5.8% | cells expressing MMP-13 [1]: 55 ± 6.4% | cells expressing MMP-14 [1]: 59.1 ± 6.3% | cells expressing SPARC [1]: 77 ± 4.2% | cells expressing TGF-α [1]: 61.4 ± 5.1% | cells expressing TGF-β1 [1]: 63.4 ± 4.1% | cells expressing TGF-β2 [1]: 60.5 ± 5.1% | cells expressing TGF-β3 [1]: 71 ± 4.56% | cells expressing MMP-3 [2]: 43.5 ± 3.7% | cells expressing MMP-7 [2]: 56.7 ± 4.8% | cells expressing MMP-9 [2]: 54.4 ± 2.4% | cells expressing MMP-11 [2]: 28.4 ± 3.8% | cells expressing MMP-13 [2]: 46.6 ± 3.6% | cells expressing MMP-14 [2]: 49.6 ± 4.2% | cells expressing SPARC [2]: 46.5 ± 3.2% | cells expressing TGF-α [2]: 36.4 ± 3.1% | cells expressing TGF-β1 [2]: 35.5 ± 2.1% | cells expressing TGF-β2 [2]: 42.6 ± 5.1% | cells expressing TGF-β3 [2]: 42.4 ± 1.6% | macrophages expressing EGF [3]: 27.4 ± 1.1% | macrophages expressing MMP-9 [3]: 24.3 ± 1.4% | macrophages expressing VEGF [3]: 29.6 ± 2.1% | PHF cells expressing MMP-3 [4]: 43.3 ± 2.7% | PHF cells expressing MMP-7 [4]: 54.3 ± 4.8% | PHF cells expressing MMP-9 [4]: 51.4 ± 2.4% | PHF cells expressing MMP-11 [4]: 28.5 ± 3.8% | PHF cells expressing MMP-13 [4]: 46 ± 2.5% | PHF cells expressing MMP-14 [4]: 49 ± 3.5% | PHF cells expressing SPARC [4]: 48.1 ± 3.2% | PHF cells expressing TGF-α [4]: 41.4 ± 2.1% | PHF cells expressing TGF-β1 [4]: 34.5 ± 3.1% | PHF cells expressing TGF-β2 [4]: 42.5 ± 2.1% | PHF cells expressing TGF-β3 [4]: 4.11 ± 3.6% | PHF cells expressing MMP-3 [5]: 43.4 ± 2.8% | PHF cells expressing MMP-7 [5]: 57.1 ± 3.8% | PHF cells expressing MMP-9 [5]: 52.3 ± 2.4% | PHF cells expressing MMP-11 [5]: 27.5 ± 3.8% | PHF cells expressing MMP-13 [5]: 45.4 ± 3.6% | PHF cells expressing MMP-14 [5]: 49.3 ± 3.5% | PHF cells expressing SPARC [5]: 51.2 ± 3.3% | PHF cells expressing TGF-α [5]: 42.5 ± 3.1% | PHF cells expressing TGF-β1 [5]: 33.6 ± 3.1% | PHF cells expressing TGF-β2 [5]: 40.7 ± 2.1% | PHF cells expressing TGF-β3 [5]: 51 ± 1.6% | polymorphonuclear cells expressing NF-kB (polymorphonuclear cells): 17.5 ± 1.6% | polymorphonuclear cells expressing TGF-β (polymorphonuclear cells): 36.8 ± 2.1% | Endothelial cells co-cultured with tumor cells + SP ([6]; Carcinoma of Colon): 243 ± 4% | Tumor cells co-cultured with endothelial cells + SP ([6]; Carcinoma of Colon): 253 ± 4% | Endothelial cells co-cultured with tumor cells + SP ([6]; Carcinoma of Pancreas): 287 ± 3% | Tumor cells co-cultured with endothelial cells + SP ([6]; Carcinoma of Pancreas): 252 ± 4% | Endothelial cells co-cultured with tumor cells + SP ([6]; Carcinoma of breast): 281 ± 4% | Tumor cells co-cultured with endothelial cells + SP ([6]; Carcinoma of breast): 253 ± 5% | Endothelial cells co-cultured with tumor cells + SP ([6]; Carcinoma of cervix): 292 ± 4% | Tumor cells co-cultured with endothelial cells + SP ([6]; Carcinoma of cervix): 260 ± 4% | Endothelial cells co-cultured with tumor cells + SP ([6]; Carcinoma of endometrial): 283 ± 5% | Tumor cells co-cultured with endothelial cells + SP ([6]; Carcinoma of endometrial): 252 ± 3% | Endothelial cells co-cultured with tumor cells + SP [6, 7]: 294 ± 2% | Tumor cells co-cultured with endothelial cells + SP [6, 7]: 264 ± 3% | Endothelial cells co-cultured with tumor cells + SP [6, 8]: 274 ± 5% | Tumor cells co-cultured with endothelial cells + SP [6, 8]: 245 ± 6% | Endothelial cells co-cultured with tumor cells + SP ([6]; Carcinoma of ovarian): 282 ± 4% | Tumor cells co-cultured with endothelial cells + SP ([6]; Carcinoma of ovarian): 254 ± 4% | Endothelial cells co-cultured with tumor cells + SP ([6]; Carcinoma of prostate): 270 ± 4% | Tumor cells co-cultured with endothelial cells + SP ([6]; Carcinoma of prostate): 269 ± 1% | Endothelial cells co-cultured with tumor cells + SP ([6]; Carcinoma of stomach): 251 ± 3% | Tumor cells co-cultured with endothelial cells + SP ([6]; Carcinoma of stomach): 260 ± 4% | Endothelial cells co-cultured with tumor cells + SP [6, 9]: 260 ± 5% | Tumor cells co-cultured with endothelial cells + SP [6, 9]: 240 ± 6% | Endothelial cells co-cultured with tumor cells + SP [6, 10]: 265 ± 2% | Tumor cells co-cultured with endothelial cells + SP [6, 10]: 230 ± 4% | Endothelial cells co-cultured with tumor cells + SP ([6]; Fibrosarcoma): 249 ± 5% | Tumor cells co-cultured with endothelial cells + SP ([6]; Fibrosarcoma): 257 ± 3% | Endothelial cells co-cultured with tumor cells + SP ([6]; Glioma): 238 ± 6% | Tumor cells co-cultured with endothelial cells + SP ([6]; Glioma): 247 ± 5% | Endothelial cells co-cultured with tumor cells + SP ([6]; Hodgkin's Lymphoma): 248 ± 5% | Tumor cells co-cultured with endothelial cells + SP ([6]; Hodgkin's Lymphoma): 265 ± 4% | Endothelial cells co-cultured with tumor cells + SP ([6]; Leukemia B): 278 ± 4% | Tumor cells co-cultured with endothelial cells + SP ([6]; Leukemia B): 265 ± 6% | Endothelial cells co-cultured with tumor cells + SP ([6]; Leukemia T): 276 ± 4% | Tumor cells co-cultured with endothelial cells + SP ([6]; Leukemia T): 256 ± 6% | Endothelial cells co-cultured with tumor cells + SP ([6]; Malignant fibrous histiocytoma): 246 ± 4% | Tumor cells co-cultured with endothelial cells + SP ([6]; Malignant fibrous histiocytoma): 245 ± 3% | Endothelial cells co-cultured with tumor cells + SP ([6]; Melanoma): 267 ± 4% | Tumor cells co-cultured with endothelial cells + SP ([6]; Melanoma): 245 ± 2% | Endothelial cells co-cultured with tumor cells + SP ([6]; Myeloma): 267 ± 2% | Tumor cells co-cultured with endothelial cells + SP ([6]; Myeloma): 232 ± 3% | Endothelial cells co-cultured with tumor cells + SP ([6]; Neuroblastoma): 258 ± 3% | Tumor cells co-cultured with endothelial cells + SP ([6]; Neuroblastoma): 256 ± 5% | Endothelial cells co-cultured with tumor cells + SP ([6]; Non-Hodgkin's Lymphoma B): 254 ± 7% | Tumor cells co-cultured with endothelial cells + SP ([6]; Non-Hodgkin's Lymphoma B): 267 ± 5% | Endothelial cells co-cultured with tumor cells + SP ([6]; Non-Hodgkin's Lymphoma T): 256 ± 4% | Tumor cells co-cultured with endothelial cells + SP ([6]; Non-Hodgkin's Lymphoma T): 276 ± 4% | Endothelial cells co-cultured with tumor cells + SP ([6]; Renal carcinoma): 282 ± 4% | Tumor cells co-cultured with endothelial cells + SP ([6]; Renal carcinoma): 260 ± 4% | Endothelial cells co-cultured with tumor cells + SP ([6]; Sarcoma of Ewing): 234 ± 5% | Tumor cells co-cultured with endothelial cells + SP ([6]; Sarcoma of Ewing): 236 ± 4%
